This passage reports IC50 results from patent US20190292179A1 (BRISTOL-MYERS SQUIBB COMPANY, priority 2016, published 2019).

Assay [1] has as its target HIS-TGFβR2 WT (Homo sapiens, UniProt P37173). The assay is described as follows: HTRF probe-displacement assay with HIS-TGFβR2 WT. It counts as binding. The note with it: 1 nM HIS-TGFβR2 WT, labeled probe at Kd, 1 hour at room temperature. The procedure:
(§1) The reaction is incubated for 1 hour at room temperature and the HTRF signal was measured on an Envision plate reader (Ex: 340 nm; Em: 520 nm/495 nm). Inhibition data were calculated by comparison to no enzyme control reactions for 100% inhibition and vehicle-only reactions for 0% inhibition. The final concentration of reagents in the assay are 1 nM HIS-TGFβR1 T204D or HIS-TGFβR2 WT, 0.2 nM anti-HIS detection antibody, labeled small molecule probe (at Kd) and 0.5% DMSO. Dose response curves were generated to determine the concentration required inhibiting 50% of kinase activity (IC50). Compounds were dissolved at 10 mM in dimethylsulfoxide (DMSO) and evaluated at eleven concentrations. IC50 values were derived by non-linear regression analysis.
Background: Time-resolved FRET reads energy transfer from a long-lived donor to a nearby acceptor.

Assay [2] concerns the target T1, HIS-TGFβR1 T204D (Homo sapiens, UniProt P36897, T204D).
T1 sequence (P36897 34-503 T204D): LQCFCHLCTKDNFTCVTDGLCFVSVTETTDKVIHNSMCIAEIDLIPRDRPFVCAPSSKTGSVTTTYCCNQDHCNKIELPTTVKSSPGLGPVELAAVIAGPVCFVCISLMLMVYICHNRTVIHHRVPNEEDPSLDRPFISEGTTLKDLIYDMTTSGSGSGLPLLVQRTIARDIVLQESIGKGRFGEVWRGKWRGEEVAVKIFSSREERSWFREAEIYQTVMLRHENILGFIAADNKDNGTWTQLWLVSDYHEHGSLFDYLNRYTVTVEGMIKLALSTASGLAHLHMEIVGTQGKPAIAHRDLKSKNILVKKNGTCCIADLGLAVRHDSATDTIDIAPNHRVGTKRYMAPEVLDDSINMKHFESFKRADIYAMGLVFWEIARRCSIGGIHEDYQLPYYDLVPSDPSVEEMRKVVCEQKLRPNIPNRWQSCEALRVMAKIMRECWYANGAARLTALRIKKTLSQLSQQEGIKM
The assay is described as follows: HTRF probe-displacement assay with HIS-TGFβR1 T204D. Type of assay: binding. The note with it: 1 nM HIS-TGFβR1 T204D, labeled probe at Kd, 1 hour at room temperature. Here is the method: as §1

By IC50 is commonly meant the point on the concentration scale where inhibition reaches its midpoint. Read a high IC50 as weaker potency in that assay.

HIS-TGFβR2 WT, sequence (P37173 23-567): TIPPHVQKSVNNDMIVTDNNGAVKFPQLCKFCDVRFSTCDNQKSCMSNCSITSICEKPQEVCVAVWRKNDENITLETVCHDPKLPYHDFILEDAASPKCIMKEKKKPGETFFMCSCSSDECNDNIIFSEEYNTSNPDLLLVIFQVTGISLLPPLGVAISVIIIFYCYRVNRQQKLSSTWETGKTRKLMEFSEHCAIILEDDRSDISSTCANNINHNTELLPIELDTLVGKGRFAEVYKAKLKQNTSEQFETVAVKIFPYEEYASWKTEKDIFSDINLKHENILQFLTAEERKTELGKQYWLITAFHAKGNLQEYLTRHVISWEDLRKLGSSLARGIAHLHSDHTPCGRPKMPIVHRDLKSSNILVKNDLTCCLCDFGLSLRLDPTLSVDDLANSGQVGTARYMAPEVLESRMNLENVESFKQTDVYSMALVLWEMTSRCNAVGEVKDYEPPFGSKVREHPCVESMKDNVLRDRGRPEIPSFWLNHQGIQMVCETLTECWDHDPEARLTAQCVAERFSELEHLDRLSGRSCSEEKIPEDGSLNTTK

Consider `NC(=O)c1cnc2ccc(-c3c[nH]nc3-c3cccc(C(F)(F)F)n3)cn12` [Example 2, 6-(3-(6-(trifluoromethyl)pyridin-2-yl)-1H-pyrazol-4-yl)imidazo[1,2-a]pyridine-3-carboxamide], for which the 50% inhibitory concentration (IC50) in assay [1] turned out to be 1.83 µM; in assay [2] it was 0.001 µM. Regarding `N#Cc1cnc2ccc(-c3c[nH]nc3-c3cccc(C(F)F)n3)cn12` [Example 4, 6-(3-(6-(difluoromethyl)pyridin-2-yl)-1H-pyrazol-4-yl)imidazo[1,2-a]pyridine-3-carbonitrile], the IC50 came out at 1.11 µM in assay [1] and 0.001 µM in assay [2]. The molecule `NC(=O)c1cnc2ccc(-c3c[nH]nc3-c3cccc(C(F)F)n3)cn12` [Example 5, 6-(3-(6-(difluoromethyl)pyridin-2-yl)-1H-pyrazol-4-yl)imidazo[1,2-a]pyridine-3-carboxamide] registered a 50% inhibitory concentration (IC50) in assay [1] of 0.193 µM. As to `N#Cc1cnc2ccc(-c3c[nH]nc3-c3cccc(F)n3)cn12` [Example 6, 6-(3-(6-fluoropyridin-2-yl)-1H-pyrazol-4-yl)imidazo[1,2-a]pyridine-3-carbonitrile], the IC50 in assay [1] came to 0.259 µM. `Cc1nc(-c2nn(C)cc2-c2ccc3ncc(C(N)=O)n3c2)ccc1F` [Example 12, 6-(3-(5-fluoro-6-methylpyridin-2-yl)-1-methyl-1H-pyrazol-4-yl)imidazo[1,2-a]pyridine-3-carboxamide] yielded an IC50 in assay [1] of 0.396 µM. `Cc1cccc(-c2n[nH]cc2-c2ccc3[nH]ncc3c2)n1` [Example 18, 5-(3-(6-methylpyridin-2-yl)-1H-pyrazol-4-yl)-1H-indazole] had an IC50 in assay [1] of 0.752 µM. The same measure, in the same setting: with `Cc1cccc(-c2n[nH]cc2-c2ccc3nccn3n2)n1` [Example 19, 6-(3-(6-methylpyridin-2-yl)-1H-pyrazol-4-yl)imidazo[1,2-b]pyridazine] the figure was 0.277 µM. Still for that read-out and setting: under `Cc1cccc(-c2n[nH]cc2-c2ccc3ncc(C(N)=O)n3n2)n1` [Example 21, 6-(3-(6-methylpyridin-2-yl)-1H-pyrazol-4-yl)imidazo[1,2-b]pyridazine-3-carboxamide] stands 0.205 µM; under `Cc1cc(-c2n[nH]cc2-c2ccc3ncc(C(N)=O)n3c2)ccc1F` [Example 50, 6-(3-(4-fluoro-3-methylphenyl)-1H-pyrazol-4-yl)imidazo[1,2-a]pyridine-3-carboxamide], 0.368 µM.

Regarding `NC(=O)c1cnc2ccc(-c3cn(CC(F)F)nc3-c3ccc(F)c(Cl)c3)cn12` [Example 62, 6-(3-(3-chloro-4-fluorophenyl)-1-(2,2-difluoroethyl)-1H-pyrazol-4-yl)imidazo[1,2-a]pyridine-3-carboxamide], the half-inhibitory concentration (IC50) in assay [1] was found to be 0.518 µM.

Consider `NC(=O)c1cnc2ccc(-c3c(-c4ccc(F)cc4)n[nH]c3C3CC3)cn12` [Example 85, 6-(5-cyclopropyl-3-(4-fluorophenyl)-1H-pyrazol-4-yl)imidazo[1,2-a]pyridine-3-carboxamide], for which the 50% inhibitory concentration (IC50) in assay [1] was found to be 0.143 µM. In assay [2], `Cn1nc(C2CC2)c(-c2ccc3ncc(F)n3c2)c1-c1ccc(F)cc1` [Example 104, 6-(3-cyclopropyl-5-(4-fluorophenyl)-1-methyl-1H-pyrazol-4-yl)-3-fluoroimidazo[1,2-a]pyridine] yielded an IC50 of 2.24 µM. Same read-out and setting: under `N#Cc1cnc2ccc(-c3c(-c4ccc(F)cc4)n[nH]c3C(F)(F)F)cn12` [Example 105, 6-(3-(4-fluorophenyl)-5-(trifluoromethyl)-1H-pyrazol-4-yl)imidazo[1,2-a]pyridine-3-carbonitrile] stands 0.041 µM. Same read-out and setting: under `Fc1ccc(-c2n[nH]c(C(F)(F)F)c2-c2ccc3nccn3c2)cc1` [Example 107, 6-(3-(4-fluorophenyl)-5-(trifluoromethyl)-1H-pyrazol-4-yl)imidazo[1,2-a]pyridine] stands 0.147 µM; under `Cn1nc(-c2ccc(F)cc2)c(-c2ccc3ncc(C(N)=O)n3c2)c1C(F)(F)F` [Example 108, 6-(3-(4-fluorophenyl)-1-methyl-5-(trifluoromethyl)-1H-pyrazol-4-yl)imidazo[1,2-a]pyridine-3-carboxamide], 0.022 µM. For `Cn1nc(C(F)(F)F)c(-c2ccc3ncc(C(N)=O)n3c2)c1-c1ccc(F)cc1` [Example 109, 6-(5-(4-fluorophenyl)-1-methyl-3-(trifluoromethyl)-1H-pyrazol-4-yl)imidazo[1,2-a]pyridine-3-carboxamide], the IC50 in assay [2] was determined as 1.13 µM.

Regarding `N#Cc1cnc2ccc(-c3c(-c4ccc(F)cc4)nn4c3COCC4)cn12` [Example 110, 6-(2-(4-fluorophenyl)-6,7-dihydro-4H-pyrazolo[5,1-c][1,4]oxazin-3-yl)imidazo[1,2-a]pyridine-3-carbonitrile], the IC50 in assay [2] worked out at 0.173 µM. On the same count and under the same terms, with `CC(C)(O)c1cnc2ccc(-c3c(-c4ccc(F)cc4)nn4c3COCC4)cn12` [Example 113, 2-(6-(2-(4-fluorophenyl)-6,7-dihydro-4H-pyrazolo[5,1-c][1,4]oxazin-3-yl)imidazo[1,2-a]pyridin-3-yl)propan-2-ol] the figure was 3.81 µM; with `Cc1cccc(-c2c(-c3ccc4ncc(C#N)n4c3)c(C(C)C)nn2C)n1` [Example 117, 6-(3-isopropyl-1-methyl-5-(6-methylpyridin-2-yl)-1H-pyrazol-4-yl)imidazo[1,2-a]pyridine-3-carbonitrile], 0.009 µM; with `Cc1cccc(-c2c(-c3ccc4nccn4c3)c(C(C)C)nn2C)n1` [Example 120, 6-(3-isopropyl-1-methyl-5-(6-methylpyridin-2-yl)-1H-pyrazol-4-yl)imidazo[1,2-a]pyridine], 0.115 µM. In turn, `CCOC(=O)c1[nH]nc(-c2ccc(F)cc2)c1-c1ccc2ncc(C#N)n2c1` [Example 128, ethyl 4-(3-cyanoimidazo[1,2-a]pyridin-6-yl)-3-(4-fluorophenyl)-1H-pyrazole-5-carboxylate] gave an IC50 in assay [2] of 0.281 µM. For `N#Cc1cnc2ccc(-c3c(-c4ccc(F)cc4)n[nH]c3C(=O)O)cn12` [Example 129], the concentration for half-maximal inhibition (IC50) in assay [2] was 1.76 µM. As for `N#Cc1cnc2ccc(-c3c(-c4ccc(F)cc4)n[nH]c3C(N)=O)cn12` [Example 130, 4-(3-cyanoimidazo[1,2-a]pyridin-6-yl)-3-(4-fluorophenyl)-1H-pyrazole-5-carboxamide], in assay [2], the IC50 turned out to be 0.145 µM. On the same count and under the same terms, with `N#Cc1cnc2ccc(-c3c(-c4ccc(F)cc4)n[nH]c3C(=O)NC3CC3)cn12` [Example 131, 4-(3-cyanoimidazo[1,2-a]pyridin-6-yl)-N-cyclopropyl-3-(4-fluorophenyl)-1H-pyrazole-5-carboxamide] the figure was 1.41 µM. On the same count and under the same terms, with `CCOC(=O)c1[nH]nc(-c2ccc(F)cc2)c1-c1ccc2nccn2c1` [Example 132, ethyl 3-(4-fluorophenyl)-4-(imidazo[1,2-a]pyridin-6-yl)-1H-pyrazole-5-carboxylate] the figure was 0.758 µM; with `O=C(O)c1[nH]nc(-c2ccc(F)cc2)c1-c1ccc2nccn2c1` [Example 133, 3-(4-fluorophenyl)-4-(imidazo[1,2-a]pyridin-6-yl)-1H-pyrazole-5-carboxylic acid], 25.3 µM; with `C=C(C)c1[nH]nc(-c2ccc(F)cc2)c1-c1ccc2nccn2c1` [Example 136, 6-(3-(4-fluorophenyl)-5-(prop-1-en-2-yl)-1H-pyrazol-4-yl)imidazo[1,2-a]pyridine], 0.023 µM. Still for that read-out and setting: with `CC(C)(O)c1[nH]nc(-c2ccc(F)cc2)c1-c1ccc2nccn2c1` [Example 137, 2-(3-(4-fluorophenyl)-4-(imidazo[1,2-a]pyridin-6-yl)-1H-pyrazol-5-yl)propan-2-ol] the figure was 0.153 µM. `CCOC(=O)c1[nH]nc(-c2cccc(C)n2)c1-c1ccc2ncc(C#N)n2c1` [Example 138, ethyl 4-(3-cyanoimidazo[1,2-a]pyridin-6-yl)-3-(6-methylpyridin-2-yl)-1H-pyrazole-5-carboxylate] had a half-maximal inhibitory concentration (IC50) in assay [2] of 0.002 µM. `CCOC(=O)c1[nH]nc(-c2cccc(C)n2)c1-c1ccc2nccn2c1` [Example 139, ethyl 4-(imidazo[1,2-a]pyridin-6-yl)-3-(6-methylpyridin-2-yl)-1H-pyrazole-5-carboxylate] registered a half-maximal inhibitory concentration (IC50) in assay [2] of 0.002 µM. Same read-out and setting: under `Cc1cccc(-c2n[nH]c(C(F)F)c2-c2ccc3nccn3c2)n1` [Example 140, 6-(5-(difluoromethyl)-3-(6-methylpyridin-2-yl)-1H-pyrazol-4-yl)imidazo[1,2-a]pyridine] stands 0.001 µM; under `CC(=O)Nc1[nH]nc(-c2ccc(F)cc2)c1-c1ccc2ncc(C#N)n2c1` [Example 142, N-(4-(3-cyanoimidazo[1,2-a]pyridin-6-yl)-3-(4-fluorophenyl)-1H-pyrazol-5-yl)acetamide], 0.274 µM. On the same count and under the same terms, with `CC(=O)Nc1[nH]nc(-c2ccc(F)cc2)c1-c1ccc2ncc(C(N)=O)n2c1` [Example 143, 6-(5-acetamido-3-(4-fluorophenyl)-1H-pyrazol-4-yl)imidazo[1,2-a]pyridine-3-carboxamide] the figure was 0.027 µM.
